Experiment [1] deals with mixed cortical cell cultures containing glial and neuronal cells. The experiment in a line: In vitro thiol experiment: intracellular cysteine levels. It is filed as cell-based, mice. To be noted: 30 minutes; for intracellular cysteine concentration: raw concentration in collected samples. As to the method:
To further resolve by what process the inhibition of ^14C-cystine uptake is occurring intracellular cysteine levels were determined.
Mixed cortical cell cultures containing glial and neuronal cells were prepared from fetal (15-16 day gestation) mice as previously described. (Lobner D, “Comparison of the LDH and MTT assays for quantifying cell death: validity for neuronal apoptosis?,” J. Neurosci. Methods, 96(2): 147-152 (Mar. 15, 2000)). Dissociated cortical cells were plated on 24-well plates coated with poly-D-lysine and laminin in Eagles' Minimal Essential Medium (MEM, Earle's salts, supplied glutamine-free) supplemented with 5% heat-inactivated horse serum, 5% fetal bovine serum, 2 mM glutamine and glucose (total 21 mM). Cultures were maintained in humidified 5% CO2 incubators at 37° C. Mice were handled in accordance with a protocol approved by our institutional animal care committee and in compliance with the Public Health service Policy on Humane Care and Use of Laboratory Animals.
Mixed cortical cell cultures, 14 days in vitro (this allows for a confluent layer of astrocytes to form and the neurons to generate a complex network of axons and dendrites), were washed into bicarbonate buffered salt solution. After 1 hour, 3, 10, 30, 100 μM of Pro-4047 or Pro-4051 was added and the cells were incubated for 30 or 90 minutes, after which the cells were thoroughly washed and the collected in 250 μL of aqueous mobile phase (50 mM citric acid, 10 mM octanesulfonic acid, pH 2.8) was added, after 10 minutes at 37° C. the cells were scraped from the plates and transferred to 1.5 mL tubes for analysis.
Samples were then sonicated with a Fisher Scientific 60 Sonic Dismembrator. One fraction of this homogenate was analyzed with the Pierce BCA (bicinchoninic acid) method to determine protein concentration. The other fraction was filtered using 3 K molecular weight cutoff, polyethersulfone centrifugal protein filters, and analyzed for thiol content using HPLC (ALF-115 column, 150×1.0 mm, 3 μm C18 [Pro-2023 analysis utilized a Phenomenex Kinetex 2.6 μM, C18, 100 A, 150×2.1 mm and Pro-4047 analysis utilized a Phenomenex Kinetex X-B, C18, 100 A, 2.6 μm, 150×4.4 mm]; mobile phase: 50 mM citric acid, 10 mM octanesulfonic acid, 2% acetonitrile, pH 2.8, 50 μL/min flow rate [Pro-2023 analysis utilized a 100 μL/min flow rate and Pro-4047 analysis utilized 1% acetonitrile and 0.4 mL/min flow rate] with electrochemical detection (Decade II, Au working electrode, Flex Cell HyREF, 0.55V, Antec Leyden, Netherlands [Pro-4047 analysis utilized a Magic Diamond working electrode and 1.8V]).
When the intracellular thiol assay was initiated, all data was normalized to protein concentration. […] The data presented herein represents the raw cysteine concentrations in the collected samples. […] Pro-4006 at 10 μM increases intracellular cysteine concentration to 0.07 μM at 30 minutes (approximately 3.5 times that of the control; FIG. 11). […] Pro-4047 at 300 μM increases intracellular cysteine concentration to 0.74 μM at 90 minutes (approximately 4.9 times that of the control; FIG. 13). […] Thus, based on the 3 in vitro experiments it is apparent that Pro-2023, Pro-4006, Pro-4011, Pro-4047, Pro-4051 and Pro-4051a behave as effective cysteine prodrugs.

Experiment [2] deals with T1, System xc− (Homo sapiens, UniProt Q9UPY5).
T1 construct: in vitro culture system of human glial cells from brain astrocytoma (1321N1); endogenous in cells; host or cells: 1321N1 human astrocytoma cells
T1 sequence (Q9UPY5 1-501): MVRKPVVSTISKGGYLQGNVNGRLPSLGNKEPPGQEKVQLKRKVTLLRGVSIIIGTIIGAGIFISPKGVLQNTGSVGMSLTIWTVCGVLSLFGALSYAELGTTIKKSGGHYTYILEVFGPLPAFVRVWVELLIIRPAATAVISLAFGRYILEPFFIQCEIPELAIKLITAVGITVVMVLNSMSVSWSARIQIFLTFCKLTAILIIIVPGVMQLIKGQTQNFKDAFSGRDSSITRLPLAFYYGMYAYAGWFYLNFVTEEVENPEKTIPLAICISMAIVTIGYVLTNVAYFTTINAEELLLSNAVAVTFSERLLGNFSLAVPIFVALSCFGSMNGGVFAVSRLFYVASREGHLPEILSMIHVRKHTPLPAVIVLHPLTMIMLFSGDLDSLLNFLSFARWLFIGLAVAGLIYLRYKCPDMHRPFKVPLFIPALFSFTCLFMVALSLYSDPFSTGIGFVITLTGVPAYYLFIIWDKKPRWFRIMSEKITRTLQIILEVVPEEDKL
T1 sequence (P08195 1-529 partner): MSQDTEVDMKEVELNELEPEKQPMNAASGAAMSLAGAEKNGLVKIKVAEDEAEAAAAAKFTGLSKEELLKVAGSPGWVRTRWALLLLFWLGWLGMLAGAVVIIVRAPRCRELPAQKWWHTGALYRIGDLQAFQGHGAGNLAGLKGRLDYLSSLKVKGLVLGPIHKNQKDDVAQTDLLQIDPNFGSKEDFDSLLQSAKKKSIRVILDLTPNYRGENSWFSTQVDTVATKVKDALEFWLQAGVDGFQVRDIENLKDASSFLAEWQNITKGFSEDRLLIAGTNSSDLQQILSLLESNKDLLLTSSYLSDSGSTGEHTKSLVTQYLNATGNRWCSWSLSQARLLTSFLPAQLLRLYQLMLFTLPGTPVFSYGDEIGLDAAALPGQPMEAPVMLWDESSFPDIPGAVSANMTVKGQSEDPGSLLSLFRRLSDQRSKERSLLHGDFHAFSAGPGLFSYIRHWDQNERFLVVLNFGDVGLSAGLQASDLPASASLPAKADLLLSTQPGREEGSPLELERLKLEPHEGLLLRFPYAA
The experiment in a line: 14C-cystine uptake in human glial cells from brain astrocytoma (1321N1). It counts as cell-based. To be noted: 1321N1 cells. As to the method:
The goal of these experiments was to determine ^14C-cystine uptake.
The screening of compounds was performed using an in vitro culture system of human glial cells from brain astrocytoma (1321N1). Cells were plated on 24 well plates coated with poly-D-lysine and laminin and grown in a balanced salt solution supplemented with 5% heat inactivated horse serum, 5% fetal bovine serum, 2 mM glutamine and glucose (total 21 mM). Cultures were maintained in humidified 5% CO2 incubators at 37° C. for 3-4 days before experiments were performed, at this time the cultures has formed a single confluent layer. For experiments, cultures were washed 3 times into a Na-free HEPES and HCO3^− buffered balanced salt solution. After 1 hour, the test compounds are added. Following a three hour incubation, ^14C-cystine (0.025 mCi/mL) was then added for 20 minutes. Following the ^14C-cystine exposure, cultures were washed 3 times with ice cold HEPES buffered saline solution and dissolved in 250 μl sodium dodecyl sulfate (0.1%). An aliquot (200 μl) was removed and added to scintillation fluid for counting. Values were normalized to ^14C-cystine uptake in untreated controls on the same experimental plate.

Experiment [3] deals with T1, System xc−. The experiment in a line: 3H-glutamate release from human glial cells from brain astrocytoma (1321N1). It is filed as cell-based. To be noted: 1321N1 cells. As to the method: This assay also uses the cell culture system of human glial cells from brain astrocytoma (1321N1) described above. Initially, cells are washed with HBBSS, and ^3H-glutamate is added (PerkinElmer: 1 mCi/mL stock solution is diluted (30 μL+500 HBBSS) and 10 μL of diluted radiolabel is added to each well). Following a 1 hour incubation to load the cells with the labeled glutamate, the cells are washed again with HBBSS, and the drug is added. At 30, 90, and 180 minutes, 50 μL of extracellular media is sampled from each well and is measured using a Beckman LS 6500 scintillation counter.

For a further experiment, the system named is Rats. The experiment in a line: Elevated-plus maze. It counts as in vivo. The following applies: 10 mg/kg PO. Here is the method: Rats were tested in a standard elevated plus maze; testing occurred in a dimly illuminated room using only two lights mounted over the maze. Animals were allowed to habituate to the room for at least one hour prior to treatment. One hour prior to testing, rats received a compound of the present invention (0-30 mg/kg, P.O.). For testing, the rat was placed in the elevated plus maze for five minutes, alternating the starting position between facing an open arm and facing a closed arm. The session was recorded and an observer blind to treatment recorded the number of explorations, entries and time spent in the open arm. Explorations were defined as the rat placing two feet into an open arm without fully entering said arm. Entries were defined as the rat placing all four feet in an open arm. Time of entry in the open arm was recorded from the time the rat placed four feet in the open arm until two of the rats' feet entered the open square.

As to `O=C(SC[C@H]1C(=O)NCC(=O)N1Cc1ccccc1)c1ccccc1` [Pro-4011, (6R)-6-[(benzoylsulfanyl)methyl]-1-benzylpiperazine-2,5-dione], in experiment [1] (10 μM compound), the “intracellular cysteine, times that of the control” value (“intracellular cysteine, times that” below) was “approximately 1.16 times” and the intracellular cysteine concentration was found to be 0.138 µM. Moreover, the “increase in 14C-cystine uptake” value on System xc− [2] (100 μM (most effective concentration), three hour incubation) is on record as “approximately 75%”. Besides, the “increase in 3H-glutamate release” value at System xc− [3] (100 μM, at 3 hours) is recorded as 75%.
On to `CC(=O)N[C@@H](CSC(=O)c1ccc(C)cc1)C(N)=O` [Pro-4051a, (2R)-2-acetamido-3-(4-methylbenzoylsulfanyl)propanamide], for which, in experiment [1] (100 μM compound), the “intracellular cysteine, times that” value is listed as “approximately 3 times” and the intracellular cysteine concentration was 0.21 µM. Further, the “inhibition of 14C-cystine uptake (in words)” value on System xc− [2] (3 hour incubation) is listed as “did not produce a substantial inhibition”. For the same molecule, in the experiment with Rats, the “increase of time on the open arms over control” value was “not a significant increase over control”. In the experiment with Rats (one hour prior to testing, five minute session), the “time spent on the open arms” value was “around 22 seconds”. Also, at System xc− [3] (1000 μM, at 30 minutes), the “increase in 3H-glutamate release” value is listed as “approximately 180%”.
As for `CC(=O)N[C@@H](CSC(C)(C)c1ccccc1)C(N)=O` [Pro-4006, (2R)-2-Acetamido-3-[(2-phenylpropan-2-yl)sulfanyl]propanamide], in experiment [1] (10 μM compound), the “intracellular cysteine, times that” value is recorded as “approximately 3.5 times” and the intracellular cysteine concentration was 0.07 µM. For the same molecule, at System xc− [2] (30 μM (most effective concentration), three hour incubation), the “decrease in 14C-cystine uptake” value was “approximately 45%”. In addition, on System xc− [3] (30 μM, at 30 minutes), the “increase in 3H-glutamate release” value was found to be 35%.

The record behind these values is patent US10961187B2, “Substituted N-acetyl-L-cysteine derivatives and related compounds” (Promentis Pharmaceuticals, Inc., priority 2013, dated 2021).
